Reference: patent US10590422B2, “Anticancer therapeutic intervention” (PHYZAT BIOPHARMACEUTICALS, LDA., priority 2017, dated 2020)

What was measured:
ASCT2 mRNA [1] = experiment: ASCT2 gene expression (RT-qPCR, relative to GAPDH) after ASCT2 gene silencing in SK-HEP-1 cells; assay type: cell-based, human; conditions: at 24 h; for ASCT2 mRNA relative abundance: liver carcinoma SK-HEP-1 cells, 10 nM siRNA, treatment 6 h, 0.5% Lipofectamine 2000, FIG. 4B
Description: (§1) SK-HEP-1, T24, HT-1080 and HCT-116 cell lines were maintained in a humidified atmosphere of 5% CO2 at 37° C. SK-HEP-1 cells were grown in RPMI-1640 (Sigma, St. Louis, Mo.) supplemented with 20% fetal bovine serum (FBS) (Gibco, UK), 100 U/mL penicillin G, 0.25 μg/mL amphotericin B, 100 μg/mL streptomycin (Gibco, UK), 25 mM sodium bicarbonate (Merck, Germany) and 25 mM N-2-hydroxyethylpiperazine-N′-2-ethanosulfonic acid (HEPES) (Sigma, St. Louis, Mo.). T24 and HT-1080 cells were grown, respectively, in Dulbecco's Modified Eagle's Medium (DMEM)—high glucose (Sigma, St. Louis, Mo.) and DMEM—low glucose (Sigma, St. Louis, Mo.), supplemented with 10% FBS (Gibco, UK), 100 U/mL penicillin G, 0.25 μg/mL amphotericin B, 100 μg/mL streptomycin (Gibco, UK), 25 mM sodium bicarbonate (Merck, Germany) and 25 mM HEPES (Sigma, St. Louis, Mo.). HCT-116 cells were grown in McCoy's 5A (Sigma, St. Louis, Mo.) supplemented with 10% FBS (Gibco, UK), 100 U/mL penicillin G, 0.25 μg/mL amphotericin B, 100 μg/mL streptomycin (Gibco, UK), 25 mM sodium bicarbonate (Merck, Germany) and 25 mM HEPES (Sigma, St. Louis, Mo.). For all cell lines the medium was changed every 2 days, and cells reached confluence 3-4 days after initial seeding. For subculturing, cells were dissociated with 0.25% trypsin-ethylenediaminetetraacetic acid (EDTA) (Sigma, St. Louis, Mo.), split 1:15 or 1:20 and subcultured in a 21-cm^2 growth area (Sarstedt, Germany).
(§2) Total RNA was isolated and purified using the SV Total RNA Isolation System (Promega, USA) according to manufacturer's instructions. RNA quality and concentration were verified in the NanoDrop ND1000 Spectrophotometer (Thermo Scientific, USA), and RNA integrity and genomic DNA contamination were evaluated by agarose gel electrophoresis. Total RNA (1 μg) was converted into cDNA using the Maxima Scientific First Strand cDNA Synthesis Kit for RT-qPCR (Thermo Scientific, USA), according to instructions. The following protocol was used: 1st step, 10 min at 25° C.; 2nd step, 15 min at 50° C.; 3rd step, 5 min at 85° C. cDNA was used for qPCR analysis using Maxima SYBR Green qPCR Master Mix (Thermo Scientific, USA) in the StepOnePlus instrument (Applied Biosystems, USA). QuantiTect Primer Assay for LAT1 and ASCT2 and for the endogenous control gene GAPDH (Quiagen, Germany) were used. The qPCR reaction was performed in 96-well PCR plates (Sarstedt, Germany) as follows: one cycle of 10 min at 95° C., followed by 40 PCR cycles at 95° C. 15 s and 60° C. 60 s. […] No template controls were always evaluated for each target gene. Quantification cycle (Cq) values were generated automatically by the StepOnePlus 2.3 Software and the ratio of the target gene was expressed in comparison to the endogenous control gene GAPDH.
(§3) Cells were plated in 24-well (Sarstedt, Germany) or 6-well plates (Sarstedt, Germany) or 96-well plates with black walls clear bottom (BD Biosciences, USA) and incubated 24 h under normal growth conditions. siRNAs against ASCT2 and transfection agent were diluted at desired concentrations and mixed according to transfection agent manufacturer's instructions. The mixture was incubated 20 min at RT for siRNA-complex formation, after which it was added to the cells and incubated at 37° C., 5% CO2. After the incubation period, serum and antibiotic was restored and cells were further incubated at normal conditions for the desired time points until evaluation of ASCT2 activity or ASCT2 expression (immunoblotting and RT-qPCR).

ASCT2 [2] = experiment: ASCT2 activity: [^14C]-L-alanine uptake in SK-HEP-1 cells after ASCT2 gene silencing; assay type: cell-based, human; conditions: ASCT2 siRNA; general statement, conditions not given
Description: (§4) Cells were plated in 24-well plates (Sarstedt, Germany) and grown until confluence was reached. On the day of the experiment, Cell culture medium was aspirated and cells were preincubated for 15 min in Hanks' medium (ChCl 140 mM, KCl 5 mM, MgSO4.7H2O 0.8 mM, K2HPO4 0.33 mM, KH2PO4 0.44 mM, MgCl2.6H2O 1 mM, CaCl2) 0.025 mM, Tris-HCl 9.75 mM, pH 7.4). Uptake was initiated by the addition of Hanks' medium with 0.25 μM [^14C]-L-alanine in the absence and in the presence of 3 mM unlabeled L-alanin. During preincubation and incubation cells were continuously shaken and maintained at 37° C. Uptake was terminated after 1 min by rapid removal of uptake solution by means of a vacuum pump connected to a Pasteur pipette, followed by a rapid wash with Hanks' medium. Subsequently, cells were solubilized in 0.1% vol/vol Triton X-100 (dissolved in 5 mM Tris-HCl, pH 7.4), and radioactivity was measured by liquid scintillation counting.
as §3

ASCT2 [3] = experiment: ASCT2 activity: [^14C]-L-alanine uptake in fibrosarcoma HT-1080 cells after ASCT2 gene silencing; assay type: cell-based, human; conditions: fibrosarcoma HT-1080 cells; 5 nM siRNA; treatment 6 h; at 48 h; 0.4% Lipofectamine 2000; FIG. 8B
Description: as §4, §3

ASCT2 mRNA [4] = experiment: ASCT2 gene expression (RT-qPCR) after ASCT2 gene silencing in human colon cancer HTC-116 cells; assay type: cell-based; conditions: treatment 6 h
Description: as §1, §2, §3

[5] = tested on: human colon cancer HTC-116 cells; experiment: Cell proliferation assay (calcein-AM) in human colon cancer HTC-116 cells; assay type: cell-based; conditions: for cell proliferation / proliferation: treatment 6 h; for cell proliferation: 72 h exposure; for proliferation: at 72 h, 0.17% Lipofectamine 2000 or 0.1% Injectin, FIGS. 19B and 20B
Description: as §1
Cell proliferation was measured using calcein-AM (Thermo Fisher Scientific, USA). The membrane permeant calcein-AM, a nonfluorescent dye, is taken up and converted by intracellular esterases to membrane impermeant calcein, which emits green fluorescence. Cells were plated in 96-well plates with black walls clear bottom (BD Biosciences, USA) and incubated 24 h under normal growth conditions. Cells were incubated with test items at 37° C., 5% C02. After the incubation period, serum and antibiotic was restored and cells were further incubated at normal conditions during 72 h. After treatment with test substances or vehicle, cells were washed twice with Hanks' medium and loaded with 2 μM calcein-AM in Hanks' medium, at 37° C. for 30 min. Fluorescence was measured at 485 nm excitation and 530 nm emission wavelengths in a microplate spectrofluorometer (Gemini EM, Molecular Devices). Nine consecutive fluorescence measurements are performed per well, to allow fluorescence readings in the whole area of the well, which was then considered for the calculation of mean fluorescence per well. To determine minimum staining for calcein (calceinmin), eight wells were treated with ethanol 30 min before calcein-AM addition. The percent cell number is calculated as [(calceinsample)/(calceincontrol)]×100.

LAT1 mRNA = experiment: LAT1 gene expression (RT-qPCR, relative to GAPDH) after LAT1 gene silencing in SK-HEP-1 cells; assay type: cell-based, human; conditions: liver carcinoma SK-HEP-1 cells; 10 nM siRNA; treatment 6 h; at 24 h; Lipofectamine 2000; FIG. 4A
Description: as §1, §2
as §3, with “LAT1” for “ASCT2”

LAT1 = LAT1 activity: [^14C]-L-leucine uptake in SK-HEP-1 cells after LAT1 gene silencing; assay type: cell-based, human; conditions: for inhibiting sodium-independent [^14C]-L-leucine transport: LAT1 siRNA, general statement, conditions not given; for [^14C]-L-leucine (0.25 μM) uptake at initial rate of uptake (1 min): liver carcinoma SK-HEP-1 cells, 10 nM siRNA, treatment 6 h, at 24 h and 48 h, 0.4% Lipofectamine 2000, FIGS. 5A and 5C
Description: as §4, with “experiment, cell” for “experiment, Cell”, “medium (NaCl” for “medium (ChCl”, “by” for “by the”, “μM [^14C]-L-leucine” for “μM [^14C]-L-alanine”, “unlabeled L-leucine.” for “unlabeled L-alanin.”
as §3, with “LAT1” for “ASCT2”

[6] = 5 or 25 nM siRNA, at 24 h or 48 h, 0.5% Lipofectamine 2000, FIGS. 9B and 9C
[7] = 72 h, 0.17% Lipofectamine 2000 or 0.1% Injectin, FIG. 20A

Row | Substance | ASCT2 mRNA relative abundance (ASCT2 mRNA [1]) | inhibiting sodium-independent [^14C]-L-leucine transport (ASCT2 [2]) | [^14C]-L-alanine (0.25 μM) uptake at initial rate of uptake (1 min) (ASCT2 [3]) | ASCT2 mRNA relative abundance (ASCT2 mRNA [4]; [6]) | ASCT2 mRNA relative abundance (ASCT2 mRNA [4]; [7]) | cell proliferation ([5]; 0.1% Injectin, FIG. 14) | proliferation [5] | further results
1 | 225 (AATAATGGCGTGGCCAAGCAC; chemistry not given here) [compound 225] | decreased | particularly effective | – | – | – | – | – | –
2 | 267/356/402 (sense CCGGUCCUGUACCGUCCUCAA; antisense UUGAGGACGGUACAGGACCGG; chemistry not given here) | – | – | decreased | decreased | significantly decreased | decreased | significantly decreased | –
3 | 237 (AATTACGTGGACCGTACGGAG; chemistry not given here) [compound 237] | decreased | particularly effective | – | – | – | – | – | –
4 | 278/367/408 (sense UGCCACGGUCGCCUCUGAGAA; antisense UUCUCAGAGGCGACCGUGGCA; chemistry not given here) | – | – | decreased | decreased | significantly decreased | decreased | significantly decreased | –
5 | 6 (AACATCACGCTGCTCAACGGC; chemistry not given here) [compound 6] | – | – | – | – | – | decreased | – | LAT1 mRNA relative abundance (LAT1 mRNA): decreased; inhibiting sodium-independent [^14C]-L-leucine transport (LAT1): particularly effective; [^14C]-L-leucine (0.25 μM) uptake at initial rate of uptake (1 min) (LAT1): decreased
6 | 278 (TGCCACGGTCGCCTCTGAGAA; chemistry not given here) [compound 278] | decreased | particularly effective | – | – | – | – | – | Effect on ASCT2 mRNA relative abundance compared with SEQ ID NO: 267 (ASCT2 mRNA [1]; SK-HEP-1 cells, 10 nM, p<0.05): significantly greater
7 | 267/397/398 (sense CCGGUCCUGUACCGUCCUCAATT; antisense UUGAGGACGGUACAGGACCGGTT; siRNA; sugars by position and backbone not given here; further chemistry not fully specified) | – | – | decreased | decreased | significantly decreased | decreased | significantly decreased | Effect on cell proliferation compared with SEQ ID NO: 267/356/402 ([5]; 72 h, 0.1% Injectin, p<0.05): significantly greater; Effect of siRNA-LAT1 SEQ ID NO: 58/387/388 upon proliferation in combination with the siRNA-ASCT2 ([5]; 72 h, siRNA-ASCT2 at non-efficacious conditions (0.037% Injectin), FIG. 18): enhanced; cell proliferation ([5]; increasing Injectin (0.037% to 0.15%), FIG. 15): decreased
8 | 22 (AACATTGTGCTGGCATTATAC; chemistry not given here) [compound 22] | – | – | – | – | – | decreased | – | LAT1 mRNA relative abundance (LAT1 mRNA): decreased; inhibiting sodium-independent [^14C]-L-leucine transport (LAT1): particularly effective; [^14C]-L-leucine (0.25 μM) uptake at initial rate of uptake (1 min) (LAT1): decreased
9 | 267 (CCGGTCCTGTACCGTCCTCAA; chemistry not given here) [compound 267] | decreased | particularly effective | – | – | – | – | – | –
